Data from patent US20240365736A1, “COMPOSITIONS AND METHODS FOR TARGETED DEGRADATION OF PROTEINS IN A PLANT CELL” (Oerth Bio LLC, priority 2021, published 2024).

system: Matricaria recutita, Diplotaxis tenuifolia, Agrostis spp., Poa annua, or Arabidopsis thaliana; assay: Plant phenotyping assay (herbicidal phenotypes, 96-well plates); format: in vivo; details: visual score of herbicidal phenotypes after seven days; 238, 475, 950, and 1900 g ai/ha (50-400 uM); also: key: '+++' is highly active; '++' is moderately active; '+' is weakly active; '−' is inactive
Procedure: Seeds of Matricaria recutita, Diplotaxis tenuifolia, Agrostis spp., Poa annua, or Arabidopsis thaliana were sown into 96-well plates containing 200 μl of growth media [0.5× Murashige and Skoog (MS) basal media (Sigma-Aldrich), 2.5 mM 2-(N-morpholino) ethanesulfonic acid (MES—Sigma-Aldrich), 0.7 g/L Phytagar (Invitrogen); pH 5.7]. Three to five seeds were distributed per well. Plates were placed under fifteen hours of light at 23° C., 65% humidity in a controlled environment growth chamber. After approximately three days, test compounds and controls were mixed with acetone and emulsified with an equal volume of 3% methyl ester of rapeseed oil (Mero), and applied to plants at concentrations of 238, 475, 950, and 1900 g ai/ha (50-400 uM).

SMILES	Plant Activity
COc1cnc(OC)n2nc(NS(=O)(=O)c3c(OC4CCN(CCOCCOCCOCCN5CCN(c6ccc7c(c6)C(=O)N(C6CCC(=O)NC6=O)C7=O)CC5)CC4)cccc3C(F)(F)F)nc12 (centres unmarked) [Compound 4-O, N-(5,8-Dimethoxy-[1,2,4]triazolo[1,5-c]pyrimidin-2-yl)-2-((1-(2-(2-(2-(2-(4-(2-(2,6-dioxopiperidin-3-yl)-1,3-dioxoisoindolin-5-yl)piperazin-1-yl)ethoxy)ethoxy)ethoxy)ethyl)piperidin-4-yl)oxy)-6-(trifluoromethyl)benzenesulfonamide]	−
COc1cnc(OC)n2nc(NS(=O)(=O)c3c(OCCOCCN4CCN(c5ccc6c(c5)C(=O)N(C5CCC(=O)NC5=O)C6=O)CC4)cccc3C(F)(F)F)nc12 (centres unmarked) [Compound 4-P, N-(5,8-dimethoxy-[1,2,4]triazolo[1,5-c]pyrimidin-2-yl)-2-(2-(2-(4-(2-(2,6-dioxopiperidin-3-yl)-1,3-dioxoisoindolin-5-yl)piperazin-1-yl)ethoxy)ethoxy)-6-(trifluoromethyl)benzenesulfonamide]	+
COc1cnc(OC)n2nc(NS(=O)(=O)c3c(OCCOCCOCCOCCCN4CCN(c5ccc6c(c5)C(=O)N(C5CCC(=O)NC5=O)C6=O)CC4)cccc3C(F)(F)F)nc12 (centres unmarked) [Compound 4-Q, N-(5,8-Dimethoxy-[1,2,4]triazolo[1,5-c]pyrimidin-2-yl)-2-(2-(2-(2-(3-(4-(2-(2,6-dioxopiperidin-3-yl)-1,3-dioxoisoindolin-5-yl)piperazin-1-yl)propoxy)ethoxy)ethoxy)ethoxy)-6-(trifluoromethyl)benzenesulfonamide]	++
COc1cnc(OC)n2nc(NS(=O)(=O)c3c(OCCOCCOCCOCCOCCCN4CCN(c5ccc6c(c5)C(=O)N(C5CCC(=O)NC5=O)C6=O)CC4)cccc3C(F)(F)F)nc12 (centres unmarked) [Compound 4-R, N-(5,8-Dimethoxy-[1,2,4]triazolo[1,5-c]pyrimidin-2-yl)-2-((15-(4-(2-(2,6-dioxopiperidin-3-yl)-1,3-dioxoisoindolin-5-yl)piperazin-1-yl)-3,6,9,12-tetraoxapentadecyl)oxy)-6-(trifluoromethyl)benzenesulfonamide]	−
COc1cnc(OC)n2nc(NS(=O)(=O)c3c(OCCOCCN4CC(OCCCN5CCN(c6ccc7c(c6)C(=O)N(C6CCC(=O)NC6=O)C7=O)CC5)C(F)(F)C4)cccc3C(F)(F)F)nc12 (centres unmarked) [Compound 4-S, N-(5,8-Dimethoxy-[1,2,4]triazolo[1,5-c]pyrimidin-2-yl)-2-(2-(2-(4-(3-(4-(2-(2,6-dioxopiperidin-3-yl)-1,3-dioxoisoindolin-5-yl)piperazin-1-yl)propoxy)-3,3-difluoropyrrolidin-1-yl)ethoxy)ethoxy)-6-(trifluoromethyl)benzenesulfonamide]	++
CCO/N=C(\CC)C1=C(O)CC(c2ccc(OCCOCCOCCOc3ccc4c(c3)C(=O)N(C3CCC(=O)NC3=O)C4=O)cc2)CC1=O (centres unmarked) [Compound 5, 2-(2,6-dioxo-3-piperidyl)-5-[2-[2-[2-[4-[4-[(E)-N-ethoxy-C-ethyl-carbonimidoyl]-3-hydroxy-5-oxo-cyclohex-3-en-1-yl]phenoxy]ethoxy]ethoxy]ethoxy]isoindoline-1,3-dione]	+
CCC(=O)C1=C(O)CC(c2ccc(OCCOCCOCCN3CCN(c4ccc5c(c4)C(=O)N(C4CCC(=O)NC4=O)C5=O)CC3)cc2)CC1=O (centres unmarked) [Compound 5-A, 2-(2,6-Dioxopiperidin-3-yl)-5-(4-(2-(2-(2-((5′-hydroxy-3′-oxo-4′-propionyl-1′,2′,3′,6′-tetrahydro-[1,1′-biphenyl]-4-yl)oxy)ethoxy)ethoxy)ethyl)piperazin-1-yl)isoindoline-1,3-dione]	−
CCO/N=C(\CC)C1=C(O)CC(c2ccc(OCCOCCOCCN3CCN(c4ccc5c(c4)C(=O)N(C4CCC(=O)NC4=O)C5=O)CC3)cc2)CC1=O (centres unmarked) [Compound 5-B, (E)-2-(2,6-Dioxopiperidin-3-yl)-5-(4-(2-(2-(2-((4′-(1-(ethoxyimino)propyl)-5′-hydroxy-3′-oxo-1′,2′,3′,6′-tetrahydro-[1,1′-biphenyl]-4-yl)oxy)ethoxy)ethoxy)ethyl)piperazin-1-yl)isoindoline-1,3-dione]	+
CCO/N=C(\CC)C1=C(O)CC(c2ccc(OC3CCN(CCOCCOCCOCCN4CCN(c5ccc6c(c5)C(=O)N(C5CCC(=O)NC5=O)C6=O)CC4)CC3)cc2)CC1=O (centres unmarked) [Compound 5-C, (E)-2-(2,6-Dioxopiperidin-3-yl)-5-(4-(2-(2-(2-(2-(4-((4′-(1-(ethoxyimino)propyl)-5′-hydroxy-3′-oxo-1′,2′,3′,6′-tetrahydro-[1,1′-biphenyl]-4-yl)oxy)piperidin-1-yl)ethoxy)ethoxy)ethoxy)ethyl)piperazin-1-yl)isoindoline-1,3-dione]	+
CCO/N=C(\CC)C1=C(O)CC(c2ccc(OCCOCCN3CCC(CCCN4CCN(c5ccc6c(c5)C(=O)N(C5CCC(=O)NC5=O)C6=O)CC4)CC3)cc2)CC1=O (centres unmarked) [Compound 5-D, (E)-2-(2,6-Dioxopiperidin-3-yl)-5-(4-(3-(1-(2-(2-((4′-(1-(ethoxyimino)propyl)-5′-hydroxy-3′-oxo-1′,2′,3′,6′-tetrahydro-[1,1′-biphenyl]-4-yl)oxy)ethoxy)ethyl)piperidin-4-yl)propyl)piperazin-1-yl)isoindoline-1,3-dione]	+
CCOC(=O)[C@@H](C)Oc1ccc(Oc2ccc(OCCOCCOCCOc3ccc4c(c3)C(=O)N(C3CCC(=O)NC3=O)C4=O)cn2)cc1 (stereo partly drawn) [Compound 6, Ethyl (2R)-2-(4-((5-(2-(2-(2-((2-(2,6-dioxopiperidin-3-yl)-1,3-dioxoisoindolin-5-yl)oxy)ethoxy)ethoxy)ethoxy)pyridin-2-yl)oxy)phenoxy)propanoate]	+
CCOC(=O)[C@@H](C)Oc1ccc(Oc2ccc(OCCOCCOCCN3CCN(c4ccc5c(c4)C(=O)N(C4CCC(=O)NC4=O)C5=O)CC3)cn2)cc1 (stereo partly drawn) [Compound 6-A, Ethyl (2R)-2-(4-((5-(2-(2-(2-(4-(2-(2,6-dioxopiperidin-3-yl)-1,3-dioxoisoindolin-5-yl)piperazin-1-yl)ethoxy)ethoxy)ethoxy)pyridin-2-yl)oxy)phenoxy)propanoate]	+
CCOC(=O)[C@@H](C)Oc1ccc(Oc2ccc(OCCOCCN3CCC(CCCN4CCN(c5ccc6c(c5)C(=O)N(C5CCC(=O)NC5=O)C6=O)CC4)CC3)cn2)cc1 (stereo partly drawn) [Compound 6-B, Ethyl (2R)-2-[4-[[5-[2-[2-[4-[3-[4-[2-(2,6-dioxo-3-piperidyl)-1,3-dioxo-isoindolin-5-yl]piperazin-1-yl]propyl]-1-piperidyl]ethoxy]ethoxy]-2-pyridyl]oxy]phenoxy]propanoate]	+
CCOC(=O)[C@@H](C)Oc1ccc(Oc2ccc(OC3CCN(CCOCCOCCOCCN4CCN(c5ccc6c(c5)C(=O)N(C5CCC(=O)NC5=O)C6=O)CC4)CC3)cn2)cc1 (stereo partly drawn) [Compound 6-C, Ethyl (2R)-2-(4-((5-((1-(2-(2-(2-(2-(4-(2-(2,6-dioxopiperidin-3-yl)-1,3-dioxoisoindolin-5-yl)piperazin-1-yl)ethoxy)ethoxy)ethoxy)ethyl)piperidin-4-yl)oxy)pyridin-2-yl)oxy)phenoxy)-propanoate]	−
O=C(COc1ccc(Oc2cncc(C(F)(F)F)c2)cc1)NCCCOCCOCCOCCOCCOc1ccc2c(c1)C(=O)N(C1CCC(=O)NC1=O)C2=O (centres unmarked) [Compound 7, N-[3-[2-[2-[2-[2-[2-(2,6-dioxo-3-piperidyl)-1,3-dioxo-isoindolin-5-yl]oxyethoxy]-ethoxy]ethoxy]ethoxy]propyl]-2-[4-[[5-(trifluoromethyl)-3-pyridyl]oxy]phenoxy]acetamide]	+
O=C(COc1ccc(Oc2cncc(C(F)(F)F)c2)cc1)NCCCOCCOCCOc1ccc2c(c1)C(=O)N(C1CCC(=O)NC1=O)C2=O (centres unmarked) [Compound 7-A, N-(3-(2-(2-((2-(2,6-Cioxopiperidin-3-yl)-1,3-dioxoisoindolin-5-yl)oxy)ethoxy)ethoxy)propyl)-2-(4-((5-(trifluoromethyl)pyridin-3-yl)oxy)phenoxy)acetamide]	−
O=C(COc1ccc(Oc2cncc(C(F)(F)F)c2)cc1)NCCCOCCOCCOCCOc1ccc2c(c1)C(=O)N(C1CCC(=O)NC1=O)C2=O (centres unmarked) [Compound 7-B, N-(3-(2-(2-(2-((2-(2,6-dioxopiperidin-3-yl)-1,3-dioxoisoindolin-5-yl)oxy)ethoxy)ethoxy)ethoxy)propyl)-2-(4-((5-(trifluoromethyl)pyridin-3-yl)oxy)phenoxy)acetamide]	+
O=C(COc1ccc(Oc2cncc(C(F)(F)F)c2)cc1)NCCCOCCOCCOCCOCCOCCOc1ccc2c(c1)C(=O)N(C1CCC(=O)NC1=O)C2=O (centres unmarked) [Compound 7-C, N-(1-((2-(2,6-dioxopiperidin-3-yl)-1,3-dioxoisoindolin-5-yl)oxy)-3,6,9,12,15-pentaoxaoctadecan-18-yl)-2-(4-((5-(trifluoromethyl)pyridin-3-yl)oxy)phenoxy)acetamide]	−
O=C(COc1ccc(Oc2nc3ccc(F)cc3s2)cc1)NCCCOCCOCCOCCOCCOc1ccc2c(c1)C(=O)N(C1CCC(=O)NC1=O)C2=O (centres unmarked) [Compound 8, N-[3-[2-[2-[2-[2-[2-(2,6-dioxo-3-piperidyl)-1,3-dioxo-isoindolin-5-yl]oxyethoxy]-ethoxy]ethoxy]ethoxy]propyl]-2-[4-[(6-fluoro-1,3-benzothiazol-2-yl)oxy]phenoxy]acetamide]	+
O=C(COc1ccc(Oc2nc3ccc(F)cc3s2)cc1)NCCCOCCOCCOc1ccc2c(c1)C(=O)N(C1CCC(=O)NC1=O)C2=O (centres unmarked) [Compound 8-A, N-(3-(2-(2-((2-(2,6-Dioxopiperidin-3-yl)-1,3-dioxoisoindolin-5-yl)oxy)ethoxy)ethoxy)propyl)-2-(4-((6-fluorobenzo[d]thiazol-2-yl)oxy)phenoxy)acetamide]	+
